Read-outs that look alike come from different tables or passages of the source. Starred links: 1 amine or outer side, 2 acyl side, 3 side chain; linkers in the order of their positions; H or OH if unused. Non-standard residues stand in square brackets, D forms with d. Residues, ends and D or L forms follow the SMILES beside them. Groups on a side chain read outwards from the residue. *: point of attachment. C20 diacid = O=C(O)CCCCCCCCCCCCCCCCCCC(=O)*; γGlu = O=C(O)[C@H](CCC(=O)[*:2])N[*:1]; NMeI = CC[C@H](C)[C@H](NC)C(=O)O; Nle = CCCC[C@H](N)C(=O)O; AEEA = NCCOCCOCC(=O)O; Aib = CC(C)(N)C(=O)O
Columns and labels:
[1] = Thioflavin T fibril formation assay of purified peptides; format: physicochemical; parameters: key: Amyloid fibril formation detected by an increase in ThT fluorescence was denoted with "Yes"; samples without increasing ThT fluorescence hence not forming amyloid fibrils were denoted "No"
How it was run: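 Compounds at 200 µM in 50 mM phosphate buffer at the stated pH values, or at 200 µM in semaglutide drug product adjusted to pH 7.4, with 4 µM ThT final. Fibrillation followed as ThT fluorescence (ex 450/em 480 nm) over 96 h at 40°C, with 5 min shaking at 700 rpm alternating with 5 min rest; triplicates.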

[2] = Chemical stability of purified peptides (RP-UHPLC main peak purity loss); format: physicochemical
How it was run: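 Peptides at about 1.0 mg/ml in 50 mM phosphate buffer pH 7.5, or pH-adjusted for the pH series, were incubated at 40 °C for 14 and 28 days. Main-peak purity was taken as main-peak area over total area by RP-UHPLC (UV 215 nm, C8, 50 °C). Purity loss was calculated versus T0.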

[3] = PK in mice; format: in vivo; parameters: T½ / MRT: unit: h; conditions: for half-life: read-out: T½ (converted)
Protocol: Lean male NMRI/RjHan mice were obtained from JanVier (JanVier Labs, France) at 6 weeks of age. The animals were single housed under a 12/12 h dark-light cycle, light off at 3 PM. Room temperature was controlled to 22°C ± 1°C, with 60 % ± 20% humidity. Animals had ad libitum access to regular rodent chow (Altromin 1324, Brogaarden, Denmark) and tap water.
After 2 weeks of acclimatization, the animals were randomized into treatment groups (n=9 per group) based on body weight. Animals were dosed IV with one peptide and SC with another peptide (15 or 50 nmol/kg) Plasma samples were collected for PK analysis at times 0.17, 1, 3, 6, 24, 30, 48, 72 and 96 hours post dosing in a sparse sampling design with 3 mice per group per timepoint. Plasma samples were analyzed using LC-MSMS and PK parameters were estimated by Non-Compartmental Analysis (NCA).

[4] = Body mass and body fat content in mouse model of diet-induced obesity (DIO); format: in vivo; conditions: DIO mice; for Blood HbA1c / M. Gastrocnemius / M. Soleus / Body weight at termination / Fat mass change from baseline / Lean mass change from baseline / Relative body weight change at termination: Table 17 study; for Body weight at termination / Fat mass change from baseline / Lean mass change from baseline / Relative body weight change at termination: ± SEM
Protocol: SEQ ID NO: 3, SEQ ID NO: 6, SEQ ID NO: 238, SEQ ID NO: 16 and SEQ ID NO: 215 were assessed for their ability to reduce body mass and body fat content in a mouse model of diet-induced obesity (DIO).
Male C57BL/6JRj mice were obtained from JanVier (JanVier Labs, France) at 5 weeks of age. The animals were group-housed during obesity induction and then single housed 2 weeks prior to study start. They were housed under a 12/12 h dark-light cycle, light off at 3 PM. Room temperature was controlled to 22°C ± 1°C, with 60 % ± 20% humidity. For 22-23 weeks prior to treatment start and throughout the study, the animals had ad libitum access to high-fat diet (60% kcal fat, D12492, Research Diets) and tap water.
The animals were randomized according to lean mass (EchoMRI) and body weight. Animals were dosed subcutaneously […] for 30-32 days. In study 1, the animals were dosed with vehicle or SEQ ID NO: 3 (10, 30, 60 or 100 nmol/kg). In study 2, the animals were dosed with vehicle or SEQ ID NO: 6 (10 or 30 nmol/kg), SEQ ID NO: 238 (10 or 30 nmol/kg), SEQ ID NO: 16 (10 or 30 nmol/kg), SEQ ID NO: 215 (10 or 30 nmol/kg) or SEQ ID NO: 3 (30 nmol/kg).
Body weight and food intake were recorded daily until day 28 and body composition evaluated on day 26 using EchoMRI. At termination, blood for HbA1c analyses were collected and M. gastrocnemius and M. soleus were weighed.
Statistical significance was evaluated using One-way analysis of variance with Dunnett's multiple comparison test. P < 0.05 was considered statistically significant.

[5] = pH 7.5, 40°C, 14 days, first value of cell
[6] = pH 7.5, 40°C, 28 days, second value of cell
[7] = male, NMRI/RjHan, in vivo, iv, Mouse, 15 nmol/kg i.v.
[8] = male, NMRI/RjHan, in vivo, sc, Mouse, 15 nmol/kg s.c.

## CC[C@H](C)[C@H](NC)C(=O)N[C@H](C(=O)N[C@@H](CC(C)C)C(=O)N[C@@H](CO)C(=O)N[C@@H](CC(C)C)C(=O)N[C@@H](CC(=O)O)C(=O)N[C@H](C(=O)N1CCC[C@H]1C(=O)N[C@H](C(=O)NCC(=O)N[C@@H](CC(C)C)C(=O)N[C@@H](CC(C)C)C(=O)N[C@@H](CCC(N)=O)C(=O)N[C@H](C(=O)N[C@@H](CC(C)C)C(=O)N[C@@H](CC(C)C)C(=O)N[C@@H](CCC(=O)O)C(=O)N[C@@H](CCC(N)=O)C(=O)N[C@@H](C)C(=O)N[C@@H](CCCNC(=N)N)C(=O)N[C@@H](C)C(=O)N[C@@H](CCCNC(=N)N)C(=O)N[C@@H](C)C(=O)N[C@@H](C)C(=O)N[C@@H](CCCNC(=N)N)C(=O)N[C@@H](CCC(=O)O)C(=O)N[C@@H](CCC(N)=O)C(=O)N[C@@H](C)C(=O)N[C@H](C(=O)N[C@@H](CCCCNC(=O)COCCOCCNC(=O)COCCOCCNC(=O)CC[C@H](NC(=O)CC[C@H](NC(=O)CCCCCCCCCCCCCCCCCCC(=O)O)C(=O)O)C(=O)O)C(=O)N[C@@H](CC(N)=O)C(=O)N[C@@H](C)C(=O)N[C@@H](CCC(=O)O)C(=O)N[C@H](C(=O)N[C@@H](CC(C)C)C(=O)N[C@@H](C)C(=O)N[C@@H](CCC(=O)O)C(=O)N[C@H](C(N)=O)C(C)C)[C@@H](C)CC)[C@@H](C)O)[C@@H](C)CC)[C@@H](C)CC)C(C)C)C(C)C [SEQ ID NO: 6] (H-[NMeI]VLSLDVPIGLLQILLEQARARAAREQATK([AEEA-AEEA-γGlu-γGlu-C20 diacid])NAEILAEV-NH2)
[1]; 200 µM compound dissolved in semaglutide drug product, pH 7.4, listed as None = drug product alone
  Amyloid fibril formation + semaglutide (Ozempic®), pH 7.4: No
[1]; 200 µM in 50 mM phosphate buffer, pH 7.0
  Amyloid fibril formation pH 7.0: No
[1]; 200 µM in 50 mM phosphate buffer, pH 7.5
  Amyloid fibril formation pH 7.5: No
[1]; 200 µM in 50 mM phosphate buffer, pH 8.0
  Amyloid fibril formation pH 8.0: No
[1]; pH 7.5, ThT assay
  Fibrillation (pH 7.5): No
[2]; pH 7.0, 40°C, 14 days
  Purity loss (RP-UPLC analysis) T14-T0 (%): -1.8%
[2]; pH 7.0, 40°C, 28 days
  Purity loss (RP-UPLC analysis) T28-T0 (%): -2.0%
[2]; pH 7.5, 40°C, 14 days
  Purity loss (RP-UPLC analysis) T14-T0 (%): -1.1%
[2]; [5]
  Chemical stability at pH 7.5 after 14 days at 40°C (% degradation): -1.0%
[2]; pH 7.5, 40°C, 28 days
  Purity loss (RP-UPLC analysis) T28-T0 (%): -2.6%
[2]; [6]
  Chemical stability at pH 7.5 after 28 days at 40°C (% degradation): -3.5%
[2]; pH 8.0, 40°C, 14 days
  Purity loss (RP-UPLC analysis) T14-T0 (%): -3.1%
[2]; pH 8.0, 40°C, 28 days
  Purity loss (RP-UPLC analysis) T28-T0 (%): -7.1%
[3]; Mouse
  MRT: 16
  T½: 14.7
[3]; male, NMRI, mouse, in vivo, sc
  bioavailability: 78%
[3]; [7]
  clearance: 3.3 mL/h/kg
  half-life: 14.7 h
[3]; [8]
  Cmax: 90 nM
  Tmax: 24 h
  half-life: 16 h
[4]; 28 days, compared to vehicle
  relative body weight: prolonged dose-dependent reduction
[4]; 10 nmol/kg
  Blood HbA1c: 4.0 ± 0.1 %
  M. Gastrocnemius: 0.18 ± 0.004 g
  M. Soleus: 0.012 ± 0.0008 g
  Body weight at termination: 42.6 ± 1.3 g
  Fat mass change from baseline: -7.0 ± 0.9 g
  Lean mass change from baseline: 0.1 ± 0.3 g
  Relative body weight change at termination: 89.1 ± 2.0 %
[4]; 30 nmol/kg
  Blood HbA1c: 4.1 ± 0.1 %
  M. Gastrocnemius: 0.18 ± 0.001 g
  M. Soleus: 0.013 ± 0.0004 g
  Body weight at termination: 38 ± 0.5 g
  Fat mass change from baseline: -10.7 ± 0.5 g
  Lean mass change from baseline: -0.1 ± 0.3 g
  Relative body weight change at termination: 79.3 ± 1.2 %

## CCCC[C@H](NC(=O)[C@@H](NC(=O)[C@H](CCC(=O)O)NC(=O)[C@H](C)NC(=O)[C@H](CC(N)=O)NC(=O)C(C)(C)NC(=O)[C@H](CCCCNC(=O)COCCOCCNC(=O)COCCOCCNC(=O)CC[C@H](NC(=O)CC[C@H](NC(=O)CCCCCCCCCCCCCCCCCCC(=O)O)C(=O)O)C(=O)O)NC(=O)[C@H](C)NC(=O)[C@H](CCC(N)=O)NC(=O)[C@H](CCC(=O)O)NC(=O)[C@H](CCCNC(=N)N)NC(=O)[C@H](C)NC(=O)[C@H](C)NC(=O)[C@H](CCCNC(=N)N)NC(=O)[C@H](C)NC(=O)[C@H](CCCNC(=N)N)NC(=O)[C@H](C)NC(=O)[C@H](CCC(N)=O)NC(=O)[C@H](CO)NC(=O)[C@H](CC(C)C)NC(=O)[C@H](CC(C)C)NC(=O)[C@@H](NC(=O)[C@H](CCC(N)=O)NC(=O)[C@H](CC(C)C)NC(=O)[C@H](CC(C)C)NC(=O)CNC(=O)[C@@H](NC(=O)[C@@H]1CCCN1C(=O)[C@@H](NC(=O)[C@H](CC(=O)O)NC(=O)[C@H](CC(C)C)NC(=O)[C@H](CO)NC(=O)[C@H](CC(C)C)NC(=O)[C@@H](NC(=O)[C@@H](NC)[C@@H](C)CC)C(C)C)C(C)C)[C@@H](C)CC)[C@@H](C)CC)[C@@H](C)CC)C(=O)N[C@@H](C)C(=O)N[C@@H](CCC(=O)O)C(=O)N[C@H](C(N)=O)C(C)C [compound 132] (H-[NMeI]VLSLDVPIGLLQILLSQARARAAREQAK([AEEA-AEEA-γGlu-γGlu-C20 diacid])[Aib]NAEI[Nle]AEV-NH2)
[1]; pH 7.5
  Fibrillation (pH 7.5): No
[2]; pH 7.5, 14 days, 40°C
  Chemical stability at pH 7.5 after 14 days at 40°C (% degradation): -1.6%
[2]; pH 7.5, 28 days, 40°C
  Chemical stability at pH 7.5 after 28 days at 40°C (% degradation): -1.3%
[3]; Mouse
  MRT: 16
  T½: 11.2

## CC[C@H](C)[C@H](N)C(=O)N[C@H](C(=O)N[C@@H](CC(C)C)C(=O)N[C@@H](CO)C(=O)N[C@@H](CC(C)C)C(=O)N[C@@H](CC(=O)O)C(=O)N[C@H](C(=O)N1CCC[C@H]1C(=O)N[C@H](C(=O)NCC(=O)N[C@@H](CC(C)C)C(=O)N[C@@H](CC(C)C)C(=O)N[C@@H](CCC(N)=O)C(=O)N[C@H](C(=O)N[C@@H](CC(C)C)C(=O)N[C@@H](CC(C)C)C(=O)N[C@@H](CCC(=O)O)C(=O)N[C@@H](CCC(N)=O)C(=O)N[C@@H](C)C(=O)N[C@@H](CCCNC(=N)N)C(=O)N[C@@H](C)C(=O)N[C@@H](CCCNC(=N)N)C(=O)N[C@@H](C)C(=O)N[C@@H](C)C(=O)N[C@@H](CCCNC(=N)N)C(=O)N[C@@H](CCC(=O)O)C(=O)N[C@@H](CCC(N)=O)C(=O)N[C@@H](C)C(=O)N[C@H](C(=O)N[C@@H](CCCCNC(=O)COCCOCCNC(=O)COCCOCCNC(=O)CC[C@H](NC(=O)CC[C@H](NC(=O)CCCCCCCCCCCCCCCCCCC(=O)O)C(=O)O)C(=O)O)C(=O)N[C@@H](CC(N)=O)C(=O)N[C@@H](C)C(=O)N[C@@H](CCC(=O)O)C(=O)N[C@H](C(=O)N[C@@H](CC(C)C)C(=O)N[C@@H](C)C(=O)N[C@@H](CCC(=O)O)C(=O)N[C@H](C(N)=O)C(C)C)[C@@H](C)CC)[C@@H](C)O)[C@@H](C)CC)[C@@H](C)CC)C(C)C)C(C)C [SEQ ID NO: 4] (H-IVLSLDVPIGLLQILLEQARARAAREQATK([AEEA-AEEA-γGlu-γGlu-C20 diacid])NAEILAEV-NH2)
[1]; pH 7.5, ThT assay
  Fibrillation (pH 7.5): No
[2]; [5]
  Chemical stability at pH 7.5 after 14 days at 40°C (% degradation): -1.3%
[2]; [6]
  Chemical stability at pH 7.5 after 28 days at 40°C (% degradation): -3.9%
[3]; Mouse
  MRT: 18.2
  T½: 14.8

From EP4810052A2, “HCRHR2 SELECTIVE POLYPEPTIDES” (Gubra A/S, priority 2023, dated 2026)
